Assay results reported in patent US20250177414A1, “COMBINATION THERAPIES FOR TREATMENT OF BREAST CANCER” (Genentech, Inc., priority 2023, published 2025).
Entries after “also recorded” stand apart in the source; their conditions may differ. Like-named read-outs stand apart in the source and are kept apart here.

How the values were obtained:
patients with HR+ LA/mBC = conditions: published trials; cited from earlier work
ER = conditions: cited from earlier work
Aqueous solubility = assay type: physicochemical
Excerpt: Inavolisib is a white to off-white, greyish pink, greyish orange, or greyish yellow powder or powder with lumps.

CYP2D6 = CYP2D6 (Homo sapiens, UniProt P10635); test: In vitro CYP450 study; assay type: in vitro ADME
pregnant rats = test: Embryo-fetal development study; assay type: in vivo, rat
human lymphocyte = test: In vitro human lymphocyte micronucleus assay; assay type: cell-based
Excerpt: (§1) Inavolisib was not mutagenic in the bacterial reverse mutation (Ames) assay. Inavolisib was clastogenic in an in vitro human lymphocyte micronucleus assay.

CYP2C8 = CYP2C8 (Homo sapiens, UniProt P10632); test: In vitro CYP450 study; assay type: in vitro ADME
dogs = test: Repeat-dose toxicity studies in dogs; assay type: in vivo, dog
OATP1B1 = OATP1B1 (Homo sapiens, UniProt Q9Y6L6); test: In vitro transporter study; assay type: in vitro ADME
Sequence of OATP1B1 (Q9Y6L6 whole entry): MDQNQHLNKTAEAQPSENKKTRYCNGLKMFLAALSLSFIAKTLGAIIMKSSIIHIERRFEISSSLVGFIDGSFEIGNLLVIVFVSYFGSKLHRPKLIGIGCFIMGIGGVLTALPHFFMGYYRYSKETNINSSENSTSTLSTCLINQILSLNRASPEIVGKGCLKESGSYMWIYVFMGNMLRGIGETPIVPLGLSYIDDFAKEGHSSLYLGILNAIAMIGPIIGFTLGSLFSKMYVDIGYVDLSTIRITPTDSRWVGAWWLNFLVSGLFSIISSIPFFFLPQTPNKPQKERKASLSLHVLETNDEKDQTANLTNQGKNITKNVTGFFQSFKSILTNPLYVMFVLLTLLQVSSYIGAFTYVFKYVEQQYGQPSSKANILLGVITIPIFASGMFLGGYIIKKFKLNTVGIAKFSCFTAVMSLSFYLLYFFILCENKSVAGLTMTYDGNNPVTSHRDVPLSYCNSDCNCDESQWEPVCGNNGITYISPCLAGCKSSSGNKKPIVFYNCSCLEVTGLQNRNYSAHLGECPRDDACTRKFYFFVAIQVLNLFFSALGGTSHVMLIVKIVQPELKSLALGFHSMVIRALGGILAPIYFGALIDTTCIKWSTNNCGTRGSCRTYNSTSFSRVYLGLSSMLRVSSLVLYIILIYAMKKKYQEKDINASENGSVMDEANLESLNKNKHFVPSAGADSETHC

QTc interval = test: Cardiac electrophysiology; assay type: in vivo, human; conditions: recommended approved dosage
Excerpt: At the recommended approved dosage, a mean increase in the QTc interval of ≥20 ms is unlikely.

OAT3 = OAT3 (Homo sapiens, UniProt Q8TCC7); test: In vitro transporter study; assay type: in vitro ADME
[1] = tested on: bacterial reverse mutation; test: Bacterial reverse mutation (Ames) assay; assay type: cell-based
Excerpt: as §1

[2] = Clinical pharmacokinetics of inavolisib
[3] = tested on: PIK3CA-mutated breast cancer cell lines; test: In vitro activity in breast cancer cell lines
[4] = Plasma protein binding in vitro; assay type: in vitro ADME
rats = test: Repeat-dose toxicity studies in rats; assay type: in vivo, rat
OATP1B3 = OATP1B3 (Homo sapiens, UniProt Q9NPD5); test: In vitro transporter study; assay type: in vitro ADME
CYP2C19 = CYP2C19 (Homo sapiens, UniProt P33261); test: In vitro CYP450 study; assay type: in vitro ADME
rat bone marrow = test: In vivo rat bone marrow micronucleus test
CYP2B6 = CYP2B6 (Homo sapiens, UniProt P20813); test: In vitro CYP450 study; assay type: in vitro ADME
CYP2C9 = CYP2C9 (Homo sapiens, UniProt P11712); test: In vitro CYP450 study; assay type: in vitro ADME
CYP1A2 = CYP1A2 (Homo sapiens, UniProt P05177); test: In vitro CYP450 study; assay type: in vitro ADME
OCT2 = OCT2 (Homo sapiens, UniProt O15244); test: In vitro transporter study; assay type: in vitro ADME
Sequence of OCT2 (O15244 whole entry): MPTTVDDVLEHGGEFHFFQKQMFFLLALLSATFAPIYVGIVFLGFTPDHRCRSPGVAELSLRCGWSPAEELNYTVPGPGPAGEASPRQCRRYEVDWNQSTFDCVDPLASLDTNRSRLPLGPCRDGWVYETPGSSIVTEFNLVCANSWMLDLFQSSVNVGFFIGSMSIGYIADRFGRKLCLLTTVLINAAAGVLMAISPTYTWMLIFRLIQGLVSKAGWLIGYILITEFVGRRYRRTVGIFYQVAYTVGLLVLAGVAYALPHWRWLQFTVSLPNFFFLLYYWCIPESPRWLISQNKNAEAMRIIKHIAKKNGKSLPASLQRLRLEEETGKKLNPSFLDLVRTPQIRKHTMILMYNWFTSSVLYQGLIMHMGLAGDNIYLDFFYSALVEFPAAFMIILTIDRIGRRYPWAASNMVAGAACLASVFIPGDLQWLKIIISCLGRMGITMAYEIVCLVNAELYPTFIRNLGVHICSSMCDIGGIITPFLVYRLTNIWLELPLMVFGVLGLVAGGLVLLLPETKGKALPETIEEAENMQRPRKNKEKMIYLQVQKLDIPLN

CYP3A = test: In vitro CYP450 study; assay type: in vitro ADME
OCT1 = OCT1 (Homo sapiens, UniProt O15245); test: In vitro transporter study; assay type: in vitro ADME
Sequence of OCT1 (O15245 whole entry): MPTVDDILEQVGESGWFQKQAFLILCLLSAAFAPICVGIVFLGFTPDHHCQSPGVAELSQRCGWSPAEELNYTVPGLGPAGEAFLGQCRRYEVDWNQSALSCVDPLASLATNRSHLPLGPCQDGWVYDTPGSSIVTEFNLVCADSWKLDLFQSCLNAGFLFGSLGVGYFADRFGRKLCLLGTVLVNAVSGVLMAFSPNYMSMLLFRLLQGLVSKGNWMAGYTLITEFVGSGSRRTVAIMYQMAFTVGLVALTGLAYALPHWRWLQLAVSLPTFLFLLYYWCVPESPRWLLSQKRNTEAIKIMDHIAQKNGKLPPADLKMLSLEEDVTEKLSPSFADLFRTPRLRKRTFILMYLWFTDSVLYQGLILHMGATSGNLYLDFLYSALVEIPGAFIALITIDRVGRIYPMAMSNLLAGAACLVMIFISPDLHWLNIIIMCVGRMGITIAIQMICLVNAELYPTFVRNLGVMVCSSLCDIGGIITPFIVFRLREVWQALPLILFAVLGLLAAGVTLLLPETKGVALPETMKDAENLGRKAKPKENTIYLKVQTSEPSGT

[5] = tested on: PIK3CA-mutated, estrogen receptor-positive, breast cancer xenograft models; test: Breast cancer xenograft models; assay type: in vivo; conditions: single agent
MATE1 = MATE1 (Homo sapiens, UniProt Q96FL8); test: In vitro transporter study; assay type: in vitro ADME
Sequence of MATE1 (Q96FL8 whole entry): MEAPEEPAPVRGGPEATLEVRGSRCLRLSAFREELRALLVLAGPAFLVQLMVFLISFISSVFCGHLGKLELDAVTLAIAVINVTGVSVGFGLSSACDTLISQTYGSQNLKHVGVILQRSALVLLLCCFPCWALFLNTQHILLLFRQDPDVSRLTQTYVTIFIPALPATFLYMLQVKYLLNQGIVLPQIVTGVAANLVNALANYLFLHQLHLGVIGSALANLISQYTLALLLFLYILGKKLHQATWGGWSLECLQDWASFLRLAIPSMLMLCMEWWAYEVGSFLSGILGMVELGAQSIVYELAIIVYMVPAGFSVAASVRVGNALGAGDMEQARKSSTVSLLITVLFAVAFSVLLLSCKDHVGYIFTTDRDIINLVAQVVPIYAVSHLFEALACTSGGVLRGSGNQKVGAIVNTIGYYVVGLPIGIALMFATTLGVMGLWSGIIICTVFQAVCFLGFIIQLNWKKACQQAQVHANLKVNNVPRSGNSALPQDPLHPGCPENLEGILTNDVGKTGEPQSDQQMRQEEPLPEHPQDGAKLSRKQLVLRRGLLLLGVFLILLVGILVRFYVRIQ

P-glycoprotein (P-gp) = P-glycoprotein (P-gp) (Homo sapiens, UniProt P08183); test: In vitro transporter study; assay type: in vitro ADME
Sequence of P-glycoprotein (P-gp) (P08183 whole entry): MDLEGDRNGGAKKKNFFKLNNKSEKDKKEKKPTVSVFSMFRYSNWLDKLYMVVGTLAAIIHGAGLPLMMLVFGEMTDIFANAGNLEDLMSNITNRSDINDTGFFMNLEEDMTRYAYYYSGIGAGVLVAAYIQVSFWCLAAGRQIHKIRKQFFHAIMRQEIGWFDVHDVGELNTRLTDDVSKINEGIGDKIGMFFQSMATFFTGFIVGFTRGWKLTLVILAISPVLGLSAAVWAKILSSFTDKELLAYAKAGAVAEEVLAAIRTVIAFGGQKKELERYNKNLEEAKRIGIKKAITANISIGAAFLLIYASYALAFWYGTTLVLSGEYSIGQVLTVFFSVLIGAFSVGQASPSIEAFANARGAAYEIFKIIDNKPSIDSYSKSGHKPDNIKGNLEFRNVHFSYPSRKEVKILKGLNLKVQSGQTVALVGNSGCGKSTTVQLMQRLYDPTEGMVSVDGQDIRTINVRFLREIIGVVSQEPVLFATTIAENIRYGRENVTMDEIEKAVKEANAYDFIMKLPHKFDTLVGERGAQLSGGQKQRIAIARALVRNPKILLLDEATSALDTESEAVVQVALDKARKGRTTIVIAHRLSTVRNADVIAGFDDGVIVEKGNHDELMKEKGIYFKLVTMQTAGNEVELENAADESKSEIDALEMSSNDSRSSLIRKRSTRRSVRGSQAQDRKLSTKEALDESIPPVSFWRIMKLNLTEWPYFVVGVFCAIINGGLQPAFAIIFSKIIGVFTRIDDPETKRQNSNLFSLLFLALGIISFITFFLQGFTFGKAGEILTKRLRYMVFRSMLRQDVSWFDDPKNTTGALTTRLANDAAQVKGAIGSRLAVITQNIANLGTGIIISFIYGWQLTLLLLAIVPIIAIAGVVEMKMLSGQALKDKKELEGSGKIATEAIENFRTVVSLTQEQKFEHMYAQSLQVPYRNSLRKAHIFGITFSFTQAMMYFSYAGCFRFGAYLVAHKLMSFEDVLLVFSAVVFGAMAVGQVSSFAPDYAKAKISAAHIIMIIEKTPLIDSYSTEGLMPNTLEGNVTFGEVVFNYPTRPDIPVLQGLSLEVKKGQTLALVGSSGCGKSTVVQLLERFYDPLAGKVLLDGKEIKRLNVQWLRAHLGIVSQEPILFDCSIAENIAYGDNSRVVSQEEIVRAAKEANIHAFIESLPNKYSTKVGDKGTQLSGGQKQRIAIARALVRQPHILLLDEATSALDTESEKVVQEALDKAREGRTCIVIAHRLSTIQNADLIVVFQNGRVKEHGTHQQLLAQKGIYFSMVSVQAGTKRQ

[6] = target: breast cancer resistance protein (BCRP) (Homo sapiens, UniProt Q9UNQ0); test: In vitro transporter study; assay type: in vitro ADME
Sequence of breast cancer resistance protein (BCRP) (Q9UNQ0 whole entry): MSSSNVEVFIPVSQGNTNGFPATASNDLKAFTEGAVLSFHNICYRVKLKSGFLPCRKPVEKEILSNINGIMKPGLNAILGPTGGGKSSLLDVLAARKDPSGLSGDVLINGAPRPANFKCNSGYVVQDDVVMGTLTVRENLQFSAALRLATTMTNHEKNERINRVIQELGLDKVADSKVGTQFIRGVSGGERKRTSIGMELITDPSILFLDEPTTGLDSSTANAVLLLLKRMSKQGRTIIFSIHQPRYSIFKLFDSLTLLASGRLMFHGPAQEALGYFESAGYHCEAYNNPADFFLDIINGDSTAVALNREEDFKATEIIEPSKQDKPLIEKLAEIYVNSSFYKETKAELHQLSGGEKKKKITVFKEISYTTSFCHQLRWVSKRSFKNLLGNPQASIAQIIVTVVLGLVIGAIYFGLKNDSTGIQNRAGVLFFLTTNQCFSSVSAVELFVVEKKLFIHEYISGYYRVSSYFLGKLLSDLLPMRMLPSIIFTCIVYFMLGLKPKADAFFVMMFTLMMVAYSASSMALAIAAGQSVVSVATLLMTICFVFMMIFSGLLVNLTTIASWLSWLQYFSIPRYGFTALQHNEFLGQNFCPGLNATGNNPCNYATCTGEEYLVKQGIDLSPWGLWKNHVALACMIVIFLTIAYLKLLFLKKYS

PI3Kα = PI3Kα (Homo sapiens, UniProt P42336); test: PI3K inhibition; assay type: biochemical
MATE2K = MATE2K (Homo sapiens, UniProt Q86VL8); test: In vitro transporter study; assay type: in vitro ADME
Sequence of MATE2K (Q86VL8 1-566 isoform Q86VL8-3): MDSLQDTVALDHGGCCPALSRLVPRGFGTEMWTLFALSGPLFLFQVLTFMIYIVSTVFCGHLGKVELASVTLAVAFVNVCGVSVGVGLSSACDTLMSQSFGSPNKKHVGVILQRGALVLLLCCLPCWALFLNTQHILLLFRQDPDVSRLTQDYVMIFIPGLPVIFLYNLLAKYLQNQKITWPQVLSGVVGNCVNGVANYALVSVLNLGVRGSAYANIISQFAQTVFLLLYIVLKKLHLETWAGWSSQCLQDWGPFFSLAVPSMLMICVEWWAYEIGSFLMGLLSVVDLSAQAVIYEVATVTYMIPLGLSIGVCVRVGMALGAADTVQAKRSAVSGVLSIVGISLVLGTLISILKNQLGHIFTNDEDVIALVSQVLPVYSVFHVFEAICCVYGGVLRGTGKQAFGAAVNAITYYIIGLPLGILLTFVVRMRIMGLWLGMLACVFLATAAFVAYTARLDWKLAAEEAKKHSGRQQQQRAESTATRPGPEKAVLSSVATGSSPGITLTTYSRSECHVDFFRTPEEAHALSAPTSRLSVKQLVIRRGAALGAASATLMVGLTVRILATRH

liver = conditions: in vivo
clinical = conditions: human, 9 mg/day
OAT2 = OAT2 (Homo sapiens, UniProt Q9Y694); test: In vitro transporter study; assay type: in vitro ADME
OAT1 = OAT1 (Homo sapiens, UniProt Q4U2R8); test: In vitro transporter study; assay type: in vitro ADME
[7] = tested on: patients with HR+/HER2− breast cancer; conditions: in combination with letrozole; cited from earlier work
[8] = tested on: patients with HR+/HER2− breast cancer; conditions: in combination with fulvestrant; cited from earlier work

## Cc1nc(NC(=O)N2CCC[C@H]2C(N)=O)sc1-c1ccnc(C(C)(C)C(F)(F)F)c1 [alpelisib]
Patients with HR+ LA/mBC
  Treatment discontinuation rate due to adverse events: 25.0%

## CO[C@H]1C[C@@H]2CC[C@@H](C)[C@@](O)(O2)C(=O)C(=O)N2CCCC[C@H]2C(=O)O[C@H]([C@H](C)C[C@@H]2CC[C@@H](OCCO)[C@H](OC)C2)CC(=O)[C@H](C)/C=C(\C)[C@@H](O)[C@@H](OC)C(=O)[C@H](C)C[C@H](C)/C=C/C=C/C=C/1C [everolimus]
Patients with HR+ LA/mBC
  Treatment discontinuation rate due to adverse events: 19%

## C[C@]12CC[C@@H]3c4ccc(O)cc4C[C@@H](CCCCCCCCC[S+]([O-])CCCC(F)(F)C(F)(F)F)[C@H]3[C@@H]1CC[C@@H]2O (stereo partly drawn) [fulvestrant, (7α,17β)-7-{9-[(4,4,5,5,5-pentafluoropentyl)sulfinyl]nonyl}estra-1,3,5(10)-triene-3,17-diol]
ER
  Affinity for the ER relative to tamoxifen: approximately 100 fold

## C[C@H](Nc1ccc2c(c1)OCCn1cc(N3C(=O)OC[C@H]3C(F)F)nc1-2)C(N)=O [inavolisib, (S)-2-((2-((S)-4-(difluoromethyl)-2-oxooxazolidin-3-yl)-5,6-dihydrobenzo[f]imidazo[1,2-d][1,4]oxazepin-9-yl)amino)propanamide]
Aqueous solubility
  Aqueous solubility: pH-dependent aqueous solubility
CYP2D6
  CYP2D6 inhibition: does not inhibit
Pregnant rats; maternal exposures approximately equivalent to the human exposure at 9 mg/day
  Developmental outcomes: caused adverse developmental outcomes
Pregnant rats; oral, period of organogenesis
  Dose resulting in decreased fetal body weight and placental weight, post-implantation loss, lower fetal viability, fetal malformations and variations: ≥ 2 mg/kg/day
Human lymphocyte
  Clastogenicity: clastogenic
CYP2C8
  CYP2C8 inhibition: does not inhibit
dogs; dogs, oral
  Dose with lens cortex vacuolation: ≥ 1 mg/kg/day
  Dose with lens fiber swelling: ≥ 0.3 mg/kg/day
dogs; male dogs, 3 months
  Dose with decreased sperm count: ≥ 1 mg/kg/day
dogs; male dogs, 4 weeks
  Dose with testis and epididymis findings: ≥ 1.5 mg/kg/day
OATP1B1
  OATP1B1 inhibition: does not inhibit
  OATP1B1 substrate: is not a substrate
QTc interval
  Mean increase in the QTc interval of ≥20 ms: unlikely
OAT3
  OAT3 inhibition: does not inhibit
[1]
  Mutagenicity: not mutagenic
[2]; 6 to 12 mg
  Dose proportionality of steady-state AUC: proportional with dose
[2]; high-fat meal
  Effect of food on pharmacokinetics: No clinically significant differences
[2]; human, in vivo
  Accumulation: approximately 2 fold
  Metabolism: primarily metabolized by hydrolysis
  Pharmacokinetics by age, sex, race, body weight, or mild hepatic impairment: No clinically significant differences
  Steady-state pharmacokinetics with concomitant proton pump inhibitor: No clinically significant difference
[2]; mild renal impairment
  Pharmacokinetics vs normal renal function: No clinically significant differences
[2]; moderate renal impairment
  AUC increase vs normal renal function: 73%
[2]; predicted
  Time to attain steady-state concentrations: ≤ 5 days
[2]; single oral radiolabeled dose
  Administered dose recovered in feces: 48%
  Administered dose recovered in feces unchanged: 11%
  Administered dose recovered in urine: 49%
  Administered dose recovered in urine unchanged: 40%
[3]; in vitro
  Apoptosis: induces apoptosis
  Cellular proliferation: reduced cellular proliferation; also recorded: inhibits proliferation
  Degradation of mutated PI3K catalytic alpha subunit p110α: induced the degradation; also recorded: specifically degrades mutant p110 alpha
  Phosphorylation of the downstream target AKT: inhibited phosphorylation
[3]; nonclinical studies
  Downstream PI3K-pathway markers, including pAKT, pPRAS40, and pS6: reduces downstream PI3K-pathway markers
[4]
  fraction unbound: 0.63
rats; female rats, up to 3 months
  Dose with atrophy in uterus and vagina, decreased ovarian follicles, estrous cycle alteration: ≥ 3 mg/kg/day
rats; male rats
  Dose with atrophy of prostate and seminal vesicle and decreased male reproductive organ weights: ≥ 1.5 mg/kg/day
rats; rats, oral
  Dose with lens degeneration: 10 mg/kg/day
OATP1B3
  OATP1B3 inhibition: does not inhibit
  OATP1B3 substrate: is not a substrate
CYP2C19
  CYP2C19 inhibition: does not inhibit
Rat bone marrow
  Genotoxicity: not genotoxic
CYP2B6
  CYP2B6 induction: induces
  CYP2B6 inhibition: does not inhibit
CYP2C9
  CYP2C9 inhibition: does not inhibit
CYP1A2
  CYP1A2 inhibition: does not inhibit
OCT2
  OCT2 inhibition: does not inhibit
  OCT2 substrate: is not a substrate
CYP3A
  CYP3A induction: induces
  CYP3A inhibition: time-dependent inhibitor
  Metabolism by CYP3A: minimally metabolized
OCT1
  OCT1 inhibition: does not inhibit
  OCT1 substrate: is not a substrate
[5]
  Tumor growth: reduced tumor growth; also recorded: inhibits tumor growth
MATE1
  MATE1 inhibition: does not inhibit
  MATE1 substrate: is not a substrate
P-glycoprotein (P-gp)
  P-gp inhibition: does not inhibit
  P-gp substrate: is a substrate
[6]
  BCRP inhibition: does not inhibit
  BCRP substrate: is a substrate
PI3Kα
  PI3K isoform inhibitory activity: inhibitory activity predominantly against PI3Kα
MATE2K
  MATE2K inhibition: does not inhibit
  MATE2K substrate: is not a substrate
liver
  DNA break: did not induce DNA break
clinical; in vivo, po
  bioavailability: 76%
clinical; plasma, oral
  clearance: 147 mL/min
  half-life: 15 h
clinical; plasma, po
  Vd/F: 155 L
OAT2
  OAT2 substrate: is not a substrate
OAT1
  OAT1 inhibition: does not inhibit
  OAT1 substrate: is not a substrate

## CC(=O)c1c(C)c2cnc(Nc3ccc(N4CCNCC4)cn3)nc2n(C2CCCC2)c1=O [palbociclib, 6-acetyl-8-cyclopentyl-5-methyl-2-(5-(piperazin-1-yl)pyridin-2-ylamino)pyrido[2,3-d]pyrimidin-7(8H)-one]
[7]
  Cycle delays: 68%
  Dose holds: 70%
  Patients requiring ≥1 dose reduction of palbociclib: 36%
[8]
  Cycle delays: 36%
  Dose holds: 54%
  Patients requiring ≥1 dose reduction of palbociclib: 34%
